Data reported in patent US20070217999A1, “Excretable Reporter Systems” (Roslin Institute (Edinburgh), priority 2003, published 2007).

What was measured:
[1] = tested on: rat Cyp1A1 promoter (Cyp1A1-SEAP reporter pCW2) in Hepa-C1C7 cells; experiment: 3MC induced Cyp1A1-SEAP vector (pCW2) expression in transfected cells, SEAP activity in medium; format: cell-based; settings: 48 hours after induction
Experimental: The sequence coding for 55.5 kD secreted alkaline phosphatase (SEAP), a truncated form of placental alkaline phosphatase enzyme that lacks the GPI anchor, was excised from pSEAP2-Basic (Clonetech) by first converting a BsmI restriction site by removing 3′-overhanging sequences and addition of BglII linker, then excision with BglII.
Hepa-C1C7 cells (cultured in DMEM supplemented with 10% FCS, 2 mM 1-glutamine, at 5% CO2) were transfected with pCW2 either transiently or stably (in conjunction with pSVNeo) using the calcium phosphate co-precipitation method. Briefly, 5 μg of plasmid (+1 μg pSVNeo for stable transfections) was mixed with calcium chloride and HEPES buffered saline to form a calcium phosphate-DNA precipitate which was left incubating with the cells for 5 hours. The medium was then replaced with fresh growth medium or with selection medium (growth medium supplemented with 400 μg/ml G418, for stable transfections). Transiently transfected cells were plated into 6 well plates and were incubated with increasing doses of 3MC dissolved in culture medium. For stable transfections, once individual colonies could be identified on the plates the colonies were pooled and incubated with 2 μg/ml 3MC. Forty eight hours after induction with 3MC the medium was assayed for SEAP activity.
SEAP activity was determined using the “SEAP reporter Gene Assay, chemiluminescent” (Roche). […]

[2] = tested on: Cyp1A1-SEAP transgene (rat Cyp1A1 promoter); experiment: 3MC induced Cyp1A1-SEAP vector expression in transgenic mice, SEAP activity in urine and blood
Experimental: 3MC was administered to female and male mice (of at least 8 weeks of age) as a suspension in Mazola brand corn oil by i.p. injection. Test animals were either transgenic or non-transgenic age-matched animals with the same genotype were i.p. injected once every 24 hours with either 40 mg/kg or 0.4 mg/kg body weight 3-methylcholanthrene (3MC) in maize oil for three consecutive injections. Control animals were injected with an equal volume of carrier corn oil only. All animals were killed by cervical dislocation 24 hours following the final dose.
Samples of the liver and kidney were removed, washed once in phosphate buffered saline and then homogenised in HB buffer (140 mM NaCl, 50 mM Tris-HCl pH 7.5, 1 mM EDTA, 1% w/v Triton X-100) using a dounce glass homogeniser until a smooth solution was formed. Insoluble proteins were removed by centrifugation at 13000 rpm for 5 minutes and the cleared supernatant was assayed for protein content using the Pierce protein determination kit. For each tissue a final concentration of 0.8 mg/ml was used in the SEAP assay.
Urine and blood samples were centrifuged at 5000 rpm for 5 minutes to remove any solid waste (from the urine) or coagulated cells (from the blood) and were assayed for SEAP activity immediately. Urine was used undiluted in the assay, whereas blood samples were diluted 1:100 and 1:500 with distilled water prior to the SEAP assay. SEAP activity was assayed as described in example 2.

[3] = tested on: SFN-hCG(myc) reporter transgene (stratifin promoter) in PC3 xenograft tumours; experiment: Induced SFN-hCG(myc) transgene expression from xenografted PC3 cell line in vivo, urinary hCG(myc) by sandwich ELISA; set-up: species or system nude mice; settings: single i.p. camptothecin 15 mg/kg; urine 24 hours after administration; versus vehicle only; FIG. 7
Experimental: The SFN-hCG(myc)-Amp reporter construct generated as described under example 5, was transfected into PC3 cells on 6-well tissue culture plates using FuGene reagent (Roche, Lewes, East Sussex). Construct DNA (equivalent to 1 μg/well) was added to FuGene reagent (3 μl/well) and made up to 100 μl/well with serum free medium. The medium in which the cells were growing was aspirated off and replaced with 100 μl of the above mixture per well. After 24 hours the cells were trypsinised and transferred to 10 cm tissue culture dishes (one well of a six well plate per 10 cm dish). The cells were allowed to grow on these dishes for 7 days prior to selection. […]
The study consisted of 4 groups in total, each containing 4 animals. […] Tumour growth was measured twice-weekly following cell implantation until tumours reached 2-5 mm in diameter. Tumour volume (V) was calculated using the formula: V= 4/3π((d1+d2)/4)^3, where d=mean diameter (n=2)
Treatment began 5 weeks after tumour implantation. […] Quantities of bound HRP were then determined by reaction with tetramethylbenzidine (TMB) and absorbance measurement at 450 nm. No hCG(myc) was detected in the urine of mice carrying xenograft tumours resulting from injection of wild-type PC3 cells. However, hCG(myc) was detected in the urine of mice carrying xenograft tumours resulting from injection of PC3 cells transfected with the SFN-hCG(myc) reporter construct.

Structure (SMILES) | SEAP activity in medium (3MC induction of pCW2) ([1]; pCW2 stably-transfected into Hepa1 cells, 2 μg/ml 3MC, FIG. 3) | SEAP activity in medium (3MC induction of pCW2) ([1]; pCW2 transiently-transfected into Hepa1 cells, increasing doses of 3MC, FIG. 2) | SEAP in urine of CYS31 transgenic mice ([2]; 0.4 mg/kg 3MC i.p., FIG. 6) | Cyp1a1-SEAP activity detected in urine and blood ([2]; 40 mg/kg 3MC i.p. once every 24 hours, three injections, 3 out of 4 founder transgenic mice analysed (CYS48, CYS50, CYS31, CYS74), FIG. 4) | SEAP activity detected in the urine of transgenic mice ([2]; 3MC i.p., FIG. 5) | urinary hCG(myc) concentration (absorbance at 450 nm) [3]
Cc1ccc2cc3c(ccc4ccccc43)c3c2c1CC3 [3MC, 3-methylcholanthrene] | induction | induction | appearance of SEAP in urine | induction | induced SEAP activity | 
CC[C@@]1(O)C(=O)OCc2c1cc1n(c2=O)Cc2cc3ccccc3nc2-1 [camptothecin] |  |  |  |  |  | increased urinary hCG(myc)
